Source: patent publication US5945436A, “Pyridylmethyl nitriles, amides and thioamides useful as fungicides” (Uniroyal Chemical Company, Inc., priority 1997, dated 1999)

Assays:
Erysiphe graminis [1] = assay: Powdery mildew of barley, systemic root uptake (BMS); type: in vivo; conditions: 45 ml of 250 mg/l, 8 days after inoculation
In short: (§1)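 Pot soil of barley (BMS) and cucumber (CMS) plants was drenched with 45 ml of a 250 mg/l acetone/Tween 20 aqueous emulsion, with untreated plants as controls. Disease was scored on a rating scale that included intermediate grades.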

Erysiphe cichoracearum = assay: Powdery mildew of cucumber, systemic root uptake (CMS); type: in vivo; conditions: 45 ml of 250 mg/l, 8 days after inoculation
In short: as §1

Uromyces phaseoli = assay: Bean rust fungus eradicant test (URO PHA); type: in vivo; conditions: pinto bean, eradicant spray 2 days after inoculation, 1,000 mg/l; for pest or weed control at 1000 µg/mL: Uromyces phaseoli, 216 h, read-out: Percent Reduction of Disease, URO PHA
In short: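 Seven-day-old pinto bean plants (Phaseolus vulgaris, primary leaf) were inoculated with 20,000 spores/ml, held 24 h at 99% humidity and 21° C., then sprayed two days post-inoculation with acetone/TWEEN 20 emulsions at 1,000 mg/l. After nine days in a 21° C. greenhouse, disease was scored as percent reduction versus unsprayed controls.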

Erysiphe polygoni = assay: Powdery mildew on pinto bean, foliar application (ERY POL); type: in vivo; conditions: similar procedure as barley (1,000 mg/l); for pest or weed control at 1000 µg/mL: Erysiphe polygoni, read-out: Percent Reduction of Disease, ERY POL
In short: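 Pinto bean plants sprayed with compound emulsion (acetone or inert solvent, TWEEN 20, water) at 1,000 mg/l, or left unsprayed, dried, then inoculated with Erysiphe polygoni spores in a 21° C greenhouse. Disease scored; percent control computed against untreated controls.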

Erysiphe graminis [2] = assay: Powdery mildew in barley, foliar application (ERY GRA); type: in vivo; conditions: foliar, 1,000 mg/l, 8 days after inoculation; for pest or weed control at 1000 µg/mL: Blumeria graminis, foliar, 192 h, read-out: Percent Reduction of Disease, ERY GRA
In short: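 'Robust' barley plants sprayed with acetone/TWEEN 20 aqueous emulsion at 1,000 mg/l, dried, then kept at 21° C in a greenhouse. Inoculated by distributing Erysiphe graminis spores from infected plants. Percent control computed from disease scores vs unsprayed control pots.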

Septoria nodorum = assay: Fungal growth inhibition, treated disc on agar (SEP NOD); type: cell-based; conditions: disc dipped in 500 mg/l, 29° C.; for inhibition at 500 µg/mL: Parastagonospora nodorum, read-out: Percent Growth Inhibition, SEP NOD
From the text: Filter paper discs, each 11 mm. in diameter, were dipped in each of the test solutions. The discs were allowed to air dry to drive off the acetone solvent. A number of untreated discs were used as controls.
The treated and untreated discs were then placed on agar plates and one of the following fungus species: Septoria nodorum (SEP NOD), Botrytis cinerea (BOT CIN), Fusarium oxysporum (FUS OXY), Pythium ultimum (PYT ULT), Rhizoctonia solani (RHI SOL), Colletotrichum gossypii (COL GOS), and Scierotinia minor (SCL MIN), was added to the center of each disc in the form of a culture plug with the fungus mat in contact with the paper of the test disc. Cercosporidium personatum (CER PER), was added to discs as a spore suspension (20,000 spores/ml) to the disc (two drops of spore suspension per disc), rather than a mycelial culture plug. The plates were then incubated at 29° C. in an oven.
With the exception of the discs containing Cercosporidium personatum, the discs were evaluated by first measuring the radius from the center of the fungus colony on the treated discs and on the untreated discs. Percent growth inhibition of each of the compounds tested was determined as a function of the difference between the radius of the fungus colony on the treated disc versus the radius of the fungus colony on the untreated disc.

Rhizoctonia solani = assay: Fungal growth inhibition, treated disc on agar (RHI SOL); type: cell-based; conditions: disc dipped in 500 mg/l, 29° C.; for inhibition at 500 µg/mL: Rhizoctonia solani, read-out: Percent Growth Inhibition, RHI SOL
Fusarium oxysporum = assay: Fungal growth inhibition, treated disc on agar (FUS OXY); type: cell-based; conditions: disc dipped in 500 mg/l, 29° C.; for inhibition at 500 µg/mL: Fusarium oxysporum, read-out: Percent Growth Inhibition, FUS OXY

SMILES	Percent Reduction of Disease, BMS (Erysiphe graminis [1])	Percent Reduction of Disease, CMS (Erysiphe cichoracearum)	pest or weed control at 1000 µg/mL (Uromyces phaseoli)	pest or weed control at 1000 µg/mL (Erysiphe polygoni)	pest or weed control at 1000 µg/mL (Erysiphe graminis [2])	inhibition at 500 µg/mL (Septoria nodorum)	inhibition at 500 µg/mL (Rhizoctonia solani)	inhibition at 500 µg/mL (Fusarium oxysporum)	Percent Reduction of Disease, URO PHA (Uromyces phaseoli)	Percent Reduction of Disease, ERY POL (Erysiphe polygoni)	Percent Reduction of Disease, ERY GRA (Erysiphe graminis [2])	Percent Growth Inhibition, SEP NOD (Septoria nodorum)	Percent Growth Inhibition, RHI SOL (Rhizoctonia solani)	Percent Growth Inhibition, FUS OXY (Fusarium oxysporum)
CC(C)CC(C#N)(CCc1ccccc1)c1cccnc1 (stereo not shown) [Compound 7]	35%	20%	90%	100%	100%	5%	94%	100%						
CCCCC(C#N)(Cc1ccc(C(C)(C)C)cc1)c1cccnc1 (stereo not shown) [Compound 19]	35%	0%	0%	100%	100%	96%	91%	100%						
N#CC(CCc1ccc(F)cc1)(CCC(F)(F)F)c1cccnc1 (stereo not shown) [Compound 77]	100%	100%	90%	100%	90%	20%	40%	55%						
C=CCC(C#N)(CCc1ccc(F)cc1)c1cccnc1 (stereo not drawn) [Compound 9, 4-fluoro-α-(2-propenyl)-α-(3-pyridinyl)benzenebutanenitrile]	40%	74%	100%	99%	100%	30%	95%	100%						
CCCC(C#N)(CCCc1ccccc1OC)c1cccnc1 (stereo not shown) [Compound 71]	100%	80%	92%	100%	100%	100%	6%	72%						
C=CCC(C#N)(CCCc1ccccc1OC)c1cccnc1 (stereo not shown) [Compound 70]	40%	0%	17%	92%	92%	100%	28%	25%						
CCOc1ccc(CCC(C#N)(CC(C)C)c2cccnc2)cc1 (stereo not shown) [Compound 43]	0%	0%	83%	92%	92%	100%	48%	100%						
CCCCC(C#N)(CCc1ccc(OCCC)cc1)c1cccnc1 (stereo not shown) [Compound 69]	0%	20%							0%	100%	50%	100%	5%	30%
COCC(C#N)(CCc1ccc(OC)cc1)c1cccnc1 (stereo not shown) [Compound 50]	0%	0%	90%	100%	80%	100%	20%	100%						
N#CC(CCCC(F)(F)F)(CCc1ccc(F)cc1)c1cccnc1 (stereo not shown) [Compound 78]	100%	92%	83%	92%	100%	30%	0%	40%						
CCCC(C#N)(Cc1ccc(Oc2ccccc2)cc1)c1cccnc1 (stereo not shown) [Compound 17]	0%	100%	0%	100%	70%	55%	45%	60%						
